According to patent US10385045B2, “Compound having EP2 agonist activity” (ONO PHARMACEUTICAL CO., LTD., priority 2015, dated 2019):

Molecular target: T1, human EP2 receptor (Homo sapiens, UniProt P43116)
T1 construct: expressed in transfected cells; host or cells: CHO cells (EP2-CHO)
Experiment: Measurement of EP2 agonist activity (cAMP concentration) in EP2-CHO cells
Format: cell-based
Conditions: EP2-CHO cells, cAMP production, 30 minutes at room temperature; read-out: EC50 (agonist activity on human EP2 receptor)
Protocol: (1) Measurement of Agonist Activity on Various Prostanoid Receptors
Using Chem1 cells or CHO cells in which various prostanoid receptors were forcibly expressed, respectively, agonist activities of test compounds on various prostanoid receptors was determined employing, as a measure, an intracellular cyclic AMP (hereinbelow, abbreviated as “cAMP”) production amount or an intracellular calcium concentration.
Each of the test compound and a control substance (PGE2 and PGF2α) was dissolved in dimethyl sulfoxide (DMSO) to prepare a 10 mmol/L solution. The 10 mmol/L solution thus prepared was thawed upon use, was then serially diluted with DMSO, and was then diluted with a buffered solution for measurement or a buffered solution for measurement 2, and then the resulting solution was subjected to an experiment.
Cells, in which various prostanoid receptors were respectively forcibly expressed, were subjected to static culture at 37° C. in the presence of 5% CO2 using a DMEM medium (Sigma) (for culturing FP-Chem1 cells) containing inactivated (56° C., 30 minutes) 9.8 vol % nondialysed-FBS (Life Technologies), 1 vol % Non Essential Amino Acids (Life Technologies), 10 mmol/L HEPES Buffered solution (Life Technologies), 0.5 vol % GENETICIN (Life Technologies) and 1% penicillin-streptomycin (Life Technologies) or an α-MEM medium (Sigma) (for culturing EP2-CHO cells) containing inactivated (56° C., 30 minutes) 9.8 vol % dialysed-FBS (Life Technologies) and penicillin-streptomycin-glutamine (Life Technologies). Subculturing was carried out in the following manner.
The medium was removed from a culture, and the culture was washed with Ca^2+-free and Mg^2+-free phosphate-buffered physiological saline one time. A proper amount of trypsin-EDTA (Life Technologies) was added to the washed product, and then the resultant product was incubated at 37° C. The cells were detached, and then a medium in a volume that is 10-fold the volume of trypsin-EDTA was added thereto to terminate the enzymatic reaction. The cells were collected in a centrifuge tube and then centrifuged at room temperature at 120 g for 3 minutes, and the supernatant was discarded therefrom. The cells were suspended in a proper amount of the medium and seeded in a culture flask.
On the day of measurement, a medium was removed and EP2-CHO cells were washed one time with a phosphate-buffered physiological saline containing 2 mmol/L EDTA and not containing Ca^2+ and Mg^2+. A proper amount of the phosphate-buffered physiological saline containing 2 mmol/L EDTA and not containing Ca^2+ and Mg^2+ was added to the cells, and this was incubated at 37° C. in the presence of 5% CO2. Subsequently, the cells were detached, then collected in a centrifuge tube and then centrifuged at room temperature at 550 g for 3 minutes, and the supernatant was removed therefrom. The cells were suspended in a proper amount of a buffered solution for measurement 1 (a MEM medium (Invitrogen) containing 1.0 w/v % of bovine serum albumin (Sigma) and 2 μmol/L of diclofenac (Sigma)), and the suspension was centrifuged at room temperature at 200 g for 3 minutes, and the supernatant was removed. The cells were suspended in a buffered solution for measurement 2 (MEM medium (Invitrogen) containing 1.0 w/v % of bovine serum albumin (Sigma), 2 μmol/L of diclofenac (Sigma) and 1 mmol/L of 3-isobutyl-1-methylxanthine), and each 25 μL of the suspension was dispensed into a 96-well ½ area plate so that the number of cells per well became […]. The buffered solution for measurement 2 (25 μL) containing a compound at each of various concentrations was added to each well to carry out a reaction at room temperature for 30 minutes. Measurement of a cAMP concentration was carried out using cAMP HTRF HiRange kit (CIS bio International). In accordance with the two-step protocol of the kit manual, each 25 μL of cAMP-D2 and Cryptase each diluted with a lysis buffer were added. […]

T1 sequence (P43116 whole entry): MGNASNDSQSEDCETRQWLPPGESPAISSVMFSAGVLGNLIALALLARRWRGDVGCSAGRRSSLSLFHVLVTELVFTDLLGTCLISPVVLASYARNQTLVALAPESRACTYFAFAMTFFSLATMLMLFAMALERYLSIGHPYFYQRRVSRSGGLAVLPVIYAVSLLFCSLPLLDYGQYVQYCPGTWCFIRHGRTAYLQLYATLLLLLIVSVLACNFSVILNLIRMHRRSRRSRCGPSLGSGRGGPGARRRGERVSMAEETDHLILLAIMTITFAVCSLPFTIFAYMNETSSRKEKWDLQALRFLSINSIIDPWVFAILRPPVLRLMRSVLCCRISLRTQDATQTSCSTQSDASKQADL

SMILES | EC50 [nM]
COc1ccc(OCCC/C=C/[C@@H]2[C@H]3CC[C@H](c4nc(C(=O)O)cs4)O[C@H]3C[C@H]2O)cc1 [Example 2-1, 2-{(2R,4aR,5R,6R,7aS)-6-Hydroxy-5-[(1E)-5-(4-methoxyphenoxy)-1-penten-1-yl]octahydrocyclopenta[b]pyran-2-yl}-1,3-thiazole-4-carboxylic acid] | 1.8
O=C(O)c1csc([C@H]2CC[C@@H]3[C@@H](/C=C/CCOc4ccccc4)[C@H](O)C[C@@H]3O2)n1 [Example 2-2, 2-{(2R,4aR,5R,6R,7aS)-6-Hydroxy-5-[(1E)-4-phenoxy-1-buten-1-yl]octahydrocyclopenta[b]pyran-2-yl}-1,3-thiazole-4-carboxylic acid] | 3.9
O=C(O)c1csc([C@H]2CC[C@@H]3[C@@H](/C=C/CCCOc4ccccc4)[C@H](O)C[C@@H]3O2)n1 [Example 2-4, 2-{(2R,4aR,5R,6R,7aS)-6-Hydroxy-5-[(1E)-5-phenoxy-1-penten-1-yl]octahydrocyclopenta[b]pyran-2-yl}-1,3-thiazole-4-carboxylic acid] | 14
Cc1ccc(OC/C=C/[C@@H]2[C@H]3CC[C@H](c4nc(C(=O)O)cs4)O[C@H]3C[C@H]2O)cc1 [Example 2-9, 2-{(2R,4aR,5R,6R,7aS)-6-Hydroxy-5-[(1E)-3-(4-methylphenoxy)-1-propen-1-yl]octahydrocyclopenta[b]pyran-2-yl}-1,3-thiazole-4-carboxylic acid] | 5.8
O=C(O)c1csc([C@H]2CC[C@@H]3[C@@H](/C=C/COc4ccccc4C(F)(F)F)[C@H](O)C[C@@H]3O2)n1 [Example 2-16, 2-[(2R,4aR,5R,6R,7aS)-6-Hydroxy-5-{(1E)-3-[2-(trifluoromethyl)phenoxy]-1-propen-1-yl}octahydrocyclopenta[b]pyran-2-yl]-1,3-thiazole-4-carboxylic acid] | 1.3
CCCCCC(F)(F)/C=C/[C@@H]1[C@H]2CC[C@H](c3nc(C(=O)O)cs3)O[C@H]2C[C@H]1O [Example 8, 2-{(2R,4aR,5R,6R,7aS)-5-[(1E)-3,3-Difluoro-1-octen-1-yl]-6-hydroxyoctahydrocyclopenta[b]pyran-2-yl}-1,3-thiazole-4-carboxylic acid] | 0.4
N#Cc1ccc(CCC(O)/C=C/[C@@H]2[C@H]3CC[C@H](c4nc(C(=O)O)cs4)O[C@H]3C[C@H]2O)cc1 (stereo partly drawn) [Example 10, 2-{(2R,4aR,5R,6R,7aS)-5-[(1E)-5-(4-Cyanophenyl)-3-hydroxy-1-penten-1-yl]-6-hydroxyoctahydrocyclopenta[b]pyran-2-yl}-1,3-thiazole-4-carboxylic acid] | 0.29
O=C(O)c1csc([C@H]2CC[C@@H]3[C@@H](/C=C/C(O)CCC4CCCC4)[C@H](O)C[C@@H]3O2)n1 (stereo partly drawn) [Example 10-3, 2-{(2R,4aR,5R,6R,7aS)-5-[(1E)-5-Cyclopentyl-3-hydroxy-1-penten-1-yl]-6-hydroxyoctahydrocyclopenta[b]pyran-2-yl}-1,3-thiazole-4-carboxylic acid] | 0.11
CCC1([C@@H](O)C/C=C/[C@@H]2[C@H]3CC[C@H](c4nc(C(=O)O)cs4)O[C@H]3C[C@H]2O)CCC1 [Example 11-2, 2-{(2R,4aR,5R,6R,7aS)-5-[(1E,4S)-4-(1-Ethylcyclobutyl)-4-hydroxy-1-buten-1-yl]-6-hydroxyoctahydrocyclopenta[b]pyran-2-yl}-1,3-thiazole-4-carboxylic acid] | 0.1
Cc1cc(OCC[C@@H]2[C@H]3CC[C@H](c4nc(C(=O)O)cs4)O[C@H]3C[C@H]2O)ccc1[N+](=O)[O-] [Example 13-20, 2-{(2R,4aR,5R,6R,7aS)-6-Hydroxy-5-[2-(3-methyl-4-nitrophenoxy)ethyl]octahydrocyclopenta[b]pyran-2-yl}-1,3-thiazole-4-carboxylic acid] | 5.7

Same assay, conditions: comparison compounds from prior art documents; read-out: EC50 (EP2 agonist activity) of prior art compounds with analogous structure

SMILES | EC50 [nM]
O=C(O)c1csc([C@H]2CC[C@@H]3[C@@H](/C=C/[C@@H](O)COc4ccccc4)[C@H](O)C[C@@H]3OC2)n1 [reference compound] | ≥ 10000
O=C(O)c1ccc(C2=CC[C@@H]3[C@@H](/C=C/[C@@H](O)C4CCCC4)[C@H](O)C[C@@H]3O2)o1 [reference compound] | ≥ 10000
CCCCC[C@H](O)/C=C/[C@@H]1[C@H]2CCC(c3ccccc3CC(=O)O)O[C@H]2C[C@H]1O (stereo partly shown) [reference compound] | ≥ 10000

Test system: not listed separately
Experiment: Intraocular pressure lowering activity after ocular instillation in rabbit
Format: in vivo
Conditions: male rabbit (NZW), ocular instillation 30 μL, administration concentration 10 μg/mL, 8 hours after the administration
Protocol: As can be easily understood by a person skilled in the art, in an in vivo test, since regarding all test compounds, carboxylic acid which is an active body has poor corneal permeability, pharmacological action of the active body was evaluated by ocular instillation administration of a compound which had been converted into an ester such as an ethyl ester or an isopropyl ester, or an alcohol.
A test compound-containing solution (30 μL) which had been adjusted to each of various concentrations was ocular instillation-administered to the left or right eye of a male rabbit (NZW (Healthy)) under consciousness, and an intraocular pressure was measured before the administration and 8 hours after the administration. An intraocular pressure before the administration was measured on a day before the administration. In measurement of an intraocular pressure, the rabbit was fixed on a wood-made restrainer, and the rabbit was anesthetized by the ocular instillation-administration of an ocular surface anesthetic agent (Benoxil eye drops 0.4%, Santen Pharmaceutical Co., Ltd.). After fitting a blepharostat (Handaya Co., Ltd.) to the rabbit, intraocular pressures of both eyes were measured (6 cases per group) with a pneumatic applanation flat tonometer (Model 30 Classic, REICHERT). A difference between an intraocular pressure value before the administration of a test compound and an intraocular pressure value after the administration of the test compound was calculated as an intraocular pressure lowering rate in accordance with the equation shown below, and the sustainability of intraocular eye lowering action was evaluated.
The administered concentrations were selected on the basis of the EP2 agonist activities measured by the above-mentioned method.

SMILES | Intraocular pressure lowering rate (%)
COc1ccc(OCCC/C=C/[C@@H]2[C@H]3CC[C@H](c4nc(C(=O)OC(C)C)cs4)O[C@H]3C[C@H]2O)cc1 [Example 4, Isopropyl 2-{(2R,4aR,5R,6R,7aS)-6-hydroxy-5-[(1E)-5-(4-methoxyphenoxy)-1-penten-1-yl]octahydrocyclopenta[b]pyran-2-yl}-1,3-thiazole-4-carboxylate] | 19.1
CC(C)OC(=O)c1csc([C@H]2CC[C@@H]3[C@@H](/C=C/COc4ccccc4C(F)(F)F)[C@H](O)C[C@@H]3O2)n1 [Example 4-3, Isopropyl 2-[(2R,4aR,5R,6R,7aS)-6-hydroxy-5-{(1E)-3-[2-(trifluoromethyl)phenoxy]-1-propen-1-yl}octahydrocyclopenta[b]pyran-2-yl]-1,3-thiazole-4-carboxylate] | 12.1
Cc1cc(OCC[C@@H]2[C@H]3CC[C@H](c4nc(C(=O)OC(C)C)cs4)O[C@H]3C[C@H]2O)ccc1[N+](=O)[O-] [Example 14, Isopropyl 2-{(2R,4aR,5R,6R,7aS)-6-hydroxy-5-[2-(3-methyl-4-nitrophenoxy)ethyl]octahydrocyclopenta[b]pyran-2-yl}-1,3-thiazole-4-carboxylate] | 23.6
